From patent US11446352B2, “Compositions and methods for inhibiting tumor-induced immune suppression” (priority 2017, dated 2022)
“Also recorded” adds a separate entry of the source.

Experiments:
[1] = system: E0771 murine cells; experiment: autophagy in E0771 cells (fluorescence micrographs); assay type: cell-based
[2] = system: AT3 cells; experiment: Western blot of control and EnnA-treated cells; assay type: cell-based, murine; settings: AT3, 0.5 μM EnnA
Description: (§1) FIG. 3A-3B are autoradiographs of a Western blot showing expression of the indicated proteins in control (left lane) and 0.5 μM EnnA-treated (right lane) E0771 (FIG. 3A) and AT3 (FIG. 3B) cells. FIG. 3C is a graph showing FACS analysis of PD-L1 level in AT3 cells. FIGS. 3D-3K are graphs showing qPCR analysis of the mRNA level of cytokines TNFa (FIG. 3D), IL-6 (FIG. 3E), TGFb1 (FIG. 3F) and IL-10 (FIG. 3G), the chemokines S100a9 (FIG. 3J) and CCL3 (FIG. 3K), as well as PDL1 (FIG. 3H) and IDO (FIG. 3I). FIGS. 3L-3Q are micrographs of HEK293 cells transiently transfected with GFP-IDO fusion protein expressing or GFP alone plasmids for 24 h. Cells were then treated with 5 μM EnnA for 6 h and analyzed for green fluorescence and bright light. FIG. 3R is a line graph of μg/ml of tryptophan and its IDO-mediated product kynurenine using the previously reported HPLC-based assay.

[3] = system: E0771 cells; experiment: Western blot of control and EnnA-treated cells; assay type: cell-based, murine
Description: as §1

[4] = system: IDO-GFP fusion protein; assay type: cell-based; settings: HEK 293 cells
Description: as §1
(§2) Western blot analysis (FIG. 3A-3B) confirmed that EnnA destabilizes pAKT and reduces the protein expression of Hsp40 in E0771 and AT3. […] It also reduces the mRNA level of the chemokines S100a9 and CCL3 (FIG. 3J-3K). Importantly, EnnA reduces the mRNA and protein levels of the key immunological checkpoint component PDL-1 (FIG. 3H). Similar results were obtained with EMT6 (not shown). […]

[5] = system: IDO; experiment: HPLC-based assay of tryptophan and kynurenine in culture media; assay type: cell-based; settings: HEK 293 cells expressing IDO-GFP
Description: as §1, §2

[6] = system: E0771 tumors; experiment: E0771 tumor model: EnnA versus 17-AAG and combinations with CPA or anti-CD8; assay type: in vivo, mice
Description: Groups of mice (n=10) were implanted with 50,000 E0771 cells. When tumors were about 150 mm3 in volume (10 days post-implantation), mice were injected every other day with DMSO, EnnA (10 mg/Kg) or 17-AAG (10 mg/Kg). Two extra groups were made. In one group, EnnA was combined with one dose (150 mg/Kg) of cyclophosphamide (CPA) on day 14. In the other EnnA was combined with anti-CD8 antibody (250 μg/mouse) injected on day 18 and 22.

[7] = system: E0771 tumor microenvironment; experiment: analysis of tumors and splenocytes from EnnA-treated mice (Western blot, FACS, immunohistochemistry, immunofluorescence); assay type: in vivo
Description: FIG. 5A is a line graph of tumor volume (mm^3) versus time (days) of mice injected with 100,000 E0771. Ten days after surgery, mice were divided into two groups: the EnnA group was injected with 10 mg/kg of EnnA. every other day, and the control group received a mixture of 15% DMSO and 20% cremophor in PBS. FIG. 5B is a line graph of body weight versus time (days) of mice treated with DMSO or EnnA. FIG. 5C is autoradiograph of a Western blot of four animals from each group using the indicated specific antibodies. FIG. 5D is a bar graph of % of gated cells treated with DMSO or EnnA showing FACS analysis of tumor cells for PDL1. FIG. 5E-5J is a panel of micrographs showing immunohistochemistry analysis of H&E staining of tumors from control and EnnA mice for analysis of necrotic tissue. FIGS. 5K-5P is a panel of micrographs showing immunohistochemistry analysis of tumors from control and EnnA mice for analysis of immune cells infiltration using anti-CD45 antibody. FIG. 5Q is a bar graph of % of gated cells treated with DMSO showing that EnnA treatment reduces CD4+/Foxp3+ Tregs. FIG. 5R is a bar graph of % of gated cells treated with DMSO or EnnA showing that EnnA treatment reduces CD11b+Gr-1+ MDSCs. FIG. 5S is a bar graph of % of gated cells treated with DMSO or EnnA showing that EnnA treatment reduces the number of CD8+/PD-1+ lymphocytes. FIG. 5T is a bar graph of % of cells treated with DMSO or EnnA showing that EnnA treatment increase the number of GR-1-CD11c+CD103+ lymphocytes.
FIGS. 8A-8L show immunofluorescent staining of E0771 tumors using anti-CD45 and anti-CD8β antibodies. FIGS. 8M-8T show immunofluorescent staining of E0771 tumors using anti-CD45 and anti-CTLA-4 antibodies. […] FIG. 8V is a bar graph showing the results of FACS analysis of CD8 positive cells in E0771 tumor-bearing mice treated with DMSO, EnnA, αCD8, or EnnA+αCD8. The X axis represents treatment group and the Y axis represents percent CD8 positive cells. FIG. 8W is a model for EnnA inhibition of Hsp 90 machinery and its impacts on the immune suppressive mechanism through PD-1 and IDO.
100,000 E0771 cells were surgically implanted in mammary fat pad of 20 mice. Ten days after surgery, mice were divided into two groups: the EnnA group was injected with 10 mg/kg of EnnA every other day, and the control group received a mixture of 15% DMSO and 20% cremophor in PBS.

CC[C@H](C)[C@H]1C(=O)O[C@H](C(C)C)C(=O)N(C)[C@@H]([C@@H](C)CC)C(=O)O[C@H](C(C)C)C(=O)N(C)[C@@H]([C@@H](C)CC)C(=O)O[C@H](C(C)C)C(=O)N1C [EnnA, Enniatin A]
autophagy [1]: induces autophagy
Hsp70 protein [2]: reduced
pAKT protein [2]: destabilizes
protein expression of Hsp40 [2]: reduces
IDO protein level ([3]; E0771 (FIG. 3A), 0.5 μM EnnA): severely reduced
Hsp70 protein ([3]; E0771, 0.5 μM EnnA): slightly increased
pAKT protein ([3]; E0771, 0.5 μM EnnA): destabilizes
protein expression of Hsp40 ([3]; E0771, 0.5 μM EnnA): reduces
IDO-GFP green fluorescence ([4]; 5 μM EnnA, 6 h): dramatic loss
cell death ([4]; early time point (6 h)): No significant cell death
IDO enzymatic activity (tryptophan accumulation, kynurenine reduction in culture media) [5]: loss of IDO enzymatic activity
breast cancer metastasis to the lungs ([6]; E0771 tumor bearing mice, H&E lung sections): prevents
tumor outcome ([6]; EnnA 10 mg/Kg combined with one dose (150 mg/Kg) of cyclophosphamide (CPA) on day 14): completely cured
tumor growth after CD8 T cell depletion ([6]; EnnA combined with anti-CD8 antibody (250 μg/mouse) on day 18 and 22): restores an aggressive tumor growth; also recorded: rapid regrowth of tumors
time mice remained tumor-free after the end of EnnA treatment ([6]; EnnA/CPA-treated mice): 2 months
anti-tumor efficacy compared with 17-AAG ([6]; each 10 mg/Kg every other day): more efficacious than 17-AAG
PD-1 expression of infiltrating CD8+ lymphocytes ([7]; FACS): lower levels
number of CD4+Foxp3+ T regulatory cells (Tregs) in tumors ([7]; FACS): significantly reduced
number of MDSCs in tumors ([7]; FACS, CD11b+Gr-1+): significantly reduced
number of GR-1-CD11c+CD103+ lymphocytes ([7]; FACS, FIG. 5T): increase
tumor necrosis ([7]; H&E staining): heavily necrotic
Hsp90 client proteins in tumors ([7]; Western blot of tumors from treated mice): destabilized
infiltration of tumors by T lymphocytes ([7]; anti-CD45 immunohistochemistry): massive infiltration
infiltration of tumors with CD45+, CD8β+ T cells ([7]; immunofluorescent staining): higher infiltration
proportion of CD8β cells in spleenocytes ([7]; tumor bearing animals, FACS): increase
PD-L1 and IDO in vivo ([7]; tumors, Western blot and FACS): destabilizes
